Here are results for 15 molecules from BindingDB's records for doi:10.1016/s0960-894x(01)00395-x (Novo Nordisk, 2001).

Each structure is given as a SMILES string.

In this assay the target is Glucose-6-phosphatase catalytic subunit (Sus scrofa). As to the kind of experiment: Compound was evaluated for inhibition of Glucose-6-Phosphatase from Triton X-100 disrupted pig liver microsomes. A general note: Liver microsomes are vesicles of endoplasmic reticulum, rich in cytochrome P450 enzymes.
Usually IC50 stands for the concentration needed to halve the response being measured. A high value points to weaker potency in that assay. `Oc1ccc(/C=N/N(Cc2ccccc2)Cc2ccccc2)cc1` [4-(Dibenzyl-hydrazonomethyl)-phenol] yielded an IC50 of 2400 nM.
With `C(=N\N(Cc1ccccc1)Cc1ccccc1)/c1cccnc1` [N,N-Dibenzyl-N'-[1-pyridin-3-yl-meth-(E)-ylidene]-hydrazine] the figure was 3700 nM; with `COc1ccc2c(c1)CCCC2=NN(Cc1ccccc1)Cc1ccccc1` [N,N-Dibenzyl-N'-[6-methoxy-3,4-dihydro-2H-naphthalen-(1E)-ylidene]-hydrazine], > 50000 nM; with `COc1ccccc1/C=N/N(Cc1ccccc1)Cc1ccccc1` [N,N-Dibenzyl-N'-[1-(2-methoxy-phenyl)-meth-(E)-ylidene]-hydrazine], > 100000 nM.
As for `CN(C)c1ccc(/C=N/N(Cc2ccccc2)Cc2ccccc2)cc1` [[4-(Dibenzyl-hydrazonomethyl)-phenyl]-dimethyl-amine], inhibition was half-maximal at 100000 nM (IC50).
Then `Clc1cc(Cl)cc(/C=N/N(Cc2ccccc2)Cc2ccccc2)c1` [N,N-Dibenzyl-N'-[1-(3,5-dichloro-phenyl)-meth-(E)-ylidene]-hydrazine], with > 100000 nM; and `C(=N\N(Cc1ccccc1)Cc1ccccc1)/c1cccs1` [N,N-Dibenzyl-N'-[1-thiophen-2-yl-meth-(E)-ylidene]-hydrazine], with 1500 nM.
With `COc1ccc(/C=N/N(Cc2ccccc2)Cc2ccccc2)cc1` [N,N-Dibenzyl-N'-[1-(4-methoxy-phenyl)-meth-(E)-ylidene]-hydrazine], the IC50 is 220 nM.
Then `Clc1ccc(/C=N/N(Cc2ccccc2)Cc2ccccc2)s1` [N,N-Dibenzyl-N'-[1-(5-chloro-thiophen-2-yl)-meth-(E)-ylidene]-hydrazine], with 170 nM.
With `Clc1ccc(/C=N/N(Cc2ccccc2)Cc2ccccc2)cc1` [N,N-Dibenzyl-N'-[1-(4-chloro-phenyl)-meth-(E)-ylidene]-hydrazine] the figure was 240 nM; with `OCc1ccc(/C=N/N(Cc2ccccc2)Cc2ccccc2)o1` [[5-(Dibenzyl-hydrazonomethyl)-furan-2-yl]-methanol], 16000 nM.
With `C(=N\N(Cc1ccccc1)Cc1ccccc1)/c1ccccc1` [N,N-Dibenzyl-N'-[1-phenyl-meth-(E)-ylidene]-hydrazine] the figure was 1500 nM.
As for `CCc1ccc(/C=N/N(Cc2ccccc2)Cc2ccccc2)o1` [N,N-Dibenzyl-N'-[1-(5-ethyl-furan-2-yl)-meth-(E)-ylidene]-hydrazine], it took 330 nM to reach half-maximal inhibition (IC50).
With `C(=N\N(Cc1ccccc1)Cc1ccccc1)/c1ccco1` [N,N-Dibenzyl-N'-[1-furan-2-yl-meth-(E)-ylidene]-hydrazine] the figure was 1100 nM; with `Clc1ccc(/C=N/N(Cc2ccccc2)Cc2ccccc2)cc1Cl` [N,N-Dibenzyl-N'-[1-(3,4-dichloro-phenyl)-meth-(E)-ylidene]-hydrazine], 2000 nM.
